# Literature values, collected in US20110150946A1 (priority 2008, published 2011).
# Settings: sublingual apomorphine 4 mg per patient
structure (smiles),measurement,value
"CN1CCc2cccc3c2[C@H]1Cc1ccc(O)c(O)c1-3 [apomorphine, 5,6,6a,7-tetrahydro-6-methyl-4H-dibenzo[de, g]quinoline-10,11-diol]",nausea incidence,14.1%
